Measurements reported in US6436946B1, “Xanthine-containing compositions for oral administration and uses related thereto” (priority 1997, dated 2002).

Columns and labels:
[1] = test system: subjects; test: Stimulant effect: score in video game of skill (Pilot Wing); type: in vivo, human; conditions: five subjects, crossover with placebo, 180 mg caffeine, Formulation I
Method: Five subjects were tested over a period of three days. […] Both prior to and after consuming the composition, each subject played a video game of skill called Pilot Wing™ made by Nintendo™.

[2] = test system: subjects; test: Standard short-term memory test (repeat series of numbers backward); type: in vivo, human; conditions: three of the five subjects, 30 minutes after ingestion
Method: The test consisted of an examiner reading a series of numbers to the subject and the subject subsequently being asked to repeat said numbers backward. In all cases, the test was initiated 30 minutes after ingestion of the composition.

SMILES: Cn1c(=O)c2c(ncn2C)n(C)c1=O [caffeine]
- video game score after consuming the composition [1]: higher scores after consuming the caffeine, compared to consuming the placebo
- digits repeated backwards without error [2]: could not repeat this accomplishment
